# Experimental data: patent US5786324A, “Synthetic peptides with bactericidal activity and endotoxin neutralizing activity for gram negative bacteria and methods for their use” (priority 1994, dated 1998)
# Where two headings read alike, the source gives them in different places. Positions of bridges follow the written chain, without caps; N, C: chain ends. Residues, ends and D or L forms follow the SMILES beside them.
# Test system: Pseudomonas aeruginosa type 1
# Assay type: cell-based
# Conditions: pH 5.6
# Protocol: Bactericidal activity can be evaluated against a variety of bacteria such as Pseudomonas spp including aeruginosa and P. cepacia, E. coli B, and Staphylococcus aureus. The preferred organism is P. aeruginosa. Bactericidal activity is determined by identifying the effective dose for killing as the molar concentration of the peptide which results in at least a 60% killing of the bacteria, as determined by standard methods. Preferably, the peptide has an effective dose at a concentration of about 1×10^-4 M to about 1×10^-10 M, and more preferably 1×10^-7 M to 1×10^-9M . […] The effective dose for bactericidal activity of B/PI is seen at about […] . Bactericidal activity can also be determined by calculating a lethal dose 50 (LD50) using standard methods. The LD50 is that amount of peptide or protein that kills 50% of the bacteria when measured using standard dose response methods. A bactericidal peptide preferably has an LD50 of about 10^-4 M to about 10^-9 M , more preferably about 10^-7 to 10^-9 M .
# The synthetically produced peptides were assayed for bactericidal activity against Pseudomonas aeruginosa, type 1, P. cepacia ATCC 25608, E. coli B, and Staphylococcus aureus 502A by standard methods.
# Pseudomonas aeruginosa type 1 is a clinical isolate maintained in the laboratory since 1972. The isolate remains a smooth strain and was serotyped by the scheme of Homma. Homma, Jpn. J. Exp. Med., 46:329 (1976). A rough strain E. coli B and S. aureus 502A were obtained from Paul Quie, University of Minnesota. The characteristics of the S. aureus strain have been described in Shinefield et al., Amer. J. Dis. Chil., 105:646 (1963). Pseudomonas cepacia ATCC 25608 was purchased from the American Type Culture Collection in 1980. S. aureus and E. coli were maintained on nutrient agar plates and the Pseudomonas strains were maintained on blood agar plates.
# Pyrogen-free solutions were used throughout this assay and all methods which follow. Log phase bacteria were prepared from a culture in brain heart infusion broth as previously described except that bacteria were washed and resuspended in saline with adjustment to an optical density at 650 nm which would yield 3×10^8 CFU/ml. Bacteria were then diluted 1:10 in 0.08M citrate phosphate buffer, pH 5.6 or pH 7.0, for use in the assay. S. aureus rapidly lost viability in the pH 5.6 buffer and was studied only at pH 7.0. Bactericidal activity was determined by dose response and where an LD50 is indicated, it was determined by linear regression.
smiles,measurement,setting,value
"CC[C@H](C)[C@H](NC(=O)[C@@H](N)CCCCN)C(=O)N[C@@H](CO)C(=O)NCC(=O)N[C@@H](CCCCN)C(=O)N[C@@H](Cc1c[nH]c2ccccc12)C(=O)N[C@@H](CCCCN)C(=O)N[C@@H](C)C(=O)N[C@@H](CCC(N)=O)C(=O)N[C@@H](CCCCN)C(=O)N[C@@H](CCCNC(=N)N)C(=O)N[C@@H](Cc1ccccc1)C(=O)N[C@@H](CC(C)C)C(=O)N[C@@H](CCCCN)C(=O)O [Peptide 8a, kisgkwkaqkrflk]",% Killing of 5 × 10^6 Bacteria,"type 1, 6.0e-6 M",79%
"CC[C@H](C)[C@H](NC(=O)[C@H](CCCCN)NC(=O)[C@@H](N)CS)C(=O)N[C@@H](CO)C(=O)NCC(=O)N[C@@H](CCCCN)C(=O)N[C@@H](Cc1c[nH]c2ccccc12)C(=O)N[C@@H](CCCCN)C(=O)N[C@@H](C)C(=O)N[C@@H](CCC(N)=O)C(=O)N[C@@H](CCCCN)C(=O)N[C@@H](CCCNC(=N)N)C(=O)N[C@@H](Cc1ccccc1)C(=O)N[C@@H](CC(C)C)C(=O)N[C@@H](CCCCN)C(=O)O [Peptide 8b, ckisgkwkaqkrflk]",% Killing of 5 × 10^6 Bacteria,"type 1, 1.5e-6 M",88%
"CSCC[C@H](NC(=O)[C@H](CCCCN)NC(=O)[C@H](CC(C)C)NC(=O)[C@H](Cc1ccccc1)NC(=O)[C@H](CCCNC(=N)N)NC(=O)[C@H](CCCCN)NC(=O)[C@H](CCC(N)=O)NC(=O)[C@H](C)NC(=O)[C@H](CCCCN)NC(=O)[C@H](Cc1c[nH]c2ccccc12)NC(=O)[C@@H](N)CCCCN)C(=O)N[C@@H](CO)C(=O)NCC(=O)O [Peptide 9a, kwkaqkrflkmsg]",% Killing of 5 × 10^6 Bacteria,"type 1, 6.0e-6 M",67%
"CSCC[C@H](NC(=O)[C@H](CCCCN)NC(=O)[C@H](CC(C)C)NC(=O)[C@H](Cc1ccccc1)NC(=O)[C@H](CCCNC(=N)N)NC(=O)[C@H](CCCCN)NC(=O)[C@H](CCC(N)=O)NC(=O)[C@H](C)NC(=O)[C@H](CCCCN)NC(=O)[C@H](Cc1c[nH]c2ccccc12)NC(=O)[C@H](CCCCN)NC(=O)[C@@H](N)CS)C(=O)N[C@@H](CO)C(=O)NCC(=O)O [Peptide 9b, ckwkaqkrflkmsg]",% Killing of 5 × 10^6 Bacteria,"type 1, 1.5e-6 M",96%
CC(C)C[C@@H]1NC(=O)[C@H](Cc2ccccc2)NC(=O)[C@H](CCCNC(=N)N)NC(=O)[C@H](CCCCN)NC(=O)[C@H](CCC(N)=O)NC(=O)[C@H](C)NC(=O)[C@H](CCCCN)NC(=O)[C@H](Cc2c[nH]c3ccccc23)NC(=O)[C@H](CCCCN)NC(=O)[C@@H](N)CSSC[C@@H](C(=O)O)NC(=O)[C@H](CCCCN)NC1=O [cyclic 20a],% Killing of 5 × 10^6 Bacteria,"type 1, 3.0e-5 M",89%
"CC(C)C[C@@H]1NC(=O)[C@H](Cc2ccccc2)NC(=O)[C@H](CCCCN)NC(=O)[C@@H](NC(=O)[C@H](CCCCN)NC(=O)[C@@H](NC(=O)[C@@H](N)CCCCN)[C@@H](C)O)CSSC[C@@H](C(=O)O)NC(=O)[C@H](CCCCN)NC(=O)[C@H](CCCCN)NC1=O [cyclic 25, reference compound] (H-KTKCKFLKKC-OH; disulfide 4-10)",% Killing of 5 × 10^6 Bacteria,"type 1, 1.5e-5 M",73%
CC[C@H](C)[C@@H]1NC(=O)[C@H](CCCCN)NC(=O)[C@@H](N)CSSC[C@@H](C(=O)O)NC(=O)[C@H](Cc2ccccc2)NC(=O)[C@H](CC(N)=O)NC(=O)CNC(=O)[C@H](CO)NC(=O)[C@H](CCSC)NC(=O)[C@H](CCCCN)NC(=O)[C@H](CC(C)C)NC(=O)[C@H](Cc2ccccc2)NC(=O)[C@H](CCCNC(=N)N)NC(=O)[C@H](CCCCN)NC(=O)[C@H](CCC(N)=O)NC(=O)[C@H](C)NC(=O)[C@H](CCCCN)NC(=O)[C@H](Cc2c[nH]c3ccccc23)NC(=O)[C@H](CCCCN)NC(=O)CNC(=O)[C@H](CO)NC1=O [cyclic 36] (H-CKISGKWKAQKRFLKMSGNFC-OH; disulfide 1-21),% Killing of 5 × 10^6 Bacteria,"type 1, 1.5e-7 M",76%
